Data: ChEMBL document CHEMBL1201862, “PubChem BioAssay data set” (2004)
The source made the active and inactive calls. No stated cut-off is given here; in the data, active = IC50 of 10 µM or less and inactive = more.

Key:
[1] = target: Neuropeptides B/W receptor type 1 (Homo sapiens, UniProt P48145); experiment: human NPBW1 receptor blockade, IC50 – cell-based, fluorescence, dose response, set 5, late-stage follow-up (AID 588566); format: functional
[2] = target: Melanin-concentrating hormone receptor 1 (Homo sapiens, UniProt Q99705); experiment: Late-stage fluorescence-based counterscreen for antagonists of the G-protein coupled receptor 7 (GPR7): cell-based dose response assay to identify antagonists of the melanin-concentrating hormone receptor 1 (MCHR1) Set 5.; format: functional
Sequence of Melanin-concentrating hormone receptor 1 (Q99705 whole entry): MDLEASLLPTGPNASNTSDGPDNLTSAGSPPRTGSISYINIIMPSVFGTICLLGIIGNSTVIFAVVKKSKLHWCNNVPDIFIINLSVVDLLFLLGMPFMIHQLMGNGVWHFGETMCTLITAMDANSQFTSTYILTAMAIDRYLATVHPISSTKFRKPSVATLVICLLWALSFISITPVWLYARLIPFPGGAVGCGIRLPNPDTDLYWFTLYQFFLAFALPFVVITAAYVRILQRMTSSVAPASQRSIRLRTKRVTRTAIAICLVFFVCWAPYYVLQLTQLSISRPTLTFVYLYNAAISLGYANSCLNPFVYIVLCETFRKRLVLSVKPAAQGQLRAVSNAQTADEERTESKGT

Sequence of Neuropeptides B/W receptor type 1 (P48145 whole entry): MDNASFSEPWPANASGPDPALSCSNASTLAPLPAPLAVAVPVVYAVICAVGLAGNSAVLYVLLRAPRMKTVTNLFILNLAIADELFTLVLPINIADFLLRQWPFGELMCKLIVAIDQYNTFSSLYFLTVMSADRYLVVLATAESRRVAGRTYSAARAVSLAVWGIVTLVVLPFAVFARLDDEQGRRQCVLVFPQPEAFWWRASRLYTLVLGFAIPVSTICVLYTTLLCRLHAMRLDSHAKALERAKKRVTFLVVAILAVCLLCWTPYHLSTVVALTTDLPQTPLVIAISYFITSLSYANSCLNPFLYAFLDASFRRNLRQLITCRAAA

IC50 [1]: 18.3 µM (inactive)
IC50 [2]: > 20 µM (inactive)
SMILES: CCOc1ccc(Oc2c(Br)nn(Cc3cccc4ccccc34)c(=O)c2Cl)cc1
